Test results from ChEMBL document CHEMBL1147616, “DNA binding of a short lexitropsin” (Bioorg Med Chem Lett, 2004).

Test system: Nucleic Acid
Assay: Compound was evaluated for its binding activity to the DNA AT-rich sites
Assay type: nucleic-acid assay

| Binding activity | Compound |
| --- | --- |
| 3 µM | CN(C)CCCNC(=O)c1cc(NC(=O)c2cc(NC(=O)c3cc(NC=O)cn3C)cn2C)cn1C |
| 0.3 µM | CC(C)n1cc(NC(=O)c2cc(NC=O)cn2C)cc1C(=O)Nc1cc(C(=O)NCCCN(C)C)n(C)c1 |
